According to the supplement of paper PMC10307832:

Key:
Test in all cases: relative viability (nuclei count vs DMSO), 5 days (fraction); higher = more cells survive
Zosuquidar + OSI-027 = compound: O[C@@H](COc1cccc2ncccc12)CN1CCN([C@@H]2c3ccccc3[C@@H]3[C@H](c4ccccc42)C3(F)F)CC1 [Zosuquidar] + COc1cccc2cc(-c3nc([C@H]4CC[C@H](C(=O)O)CC4)n4ncnc(N)c34)[nH]c12 [OSI-027] (partner 0.5 µM)
In short: (§1)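 Lung cancer cell lines, seeded in 1536-well plates, were treated the following day by pin tool with a single drug or with five library-drug doses (not always all listed) in √10 steps on top of a fixed anchor-drug dose. Cells were fixed and nuclei stained in one step after 5 days, and nuclei were counted. Relative viability is the nuclei count for treated wells divided by that for vehicle wells, reported as medians of duplicate plates.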

Zosuquidar + AZD7762 = compound: O[C@@H](COc1cccc2ncccc12)CN1CCN([C@@H]2c3ccccc3[C@@H]3[C@H](c4ccccc42)C3(F)F)CC1 [Zosuquidar] + NC(=O)Nc1cc(-c2cccc(F)c2)sc1C(=O)N[C@H]1CCCNC1 [AZD7762] (partner 0.2 µM)
In short: as §1

Zosuquidar + Pemetrexed = compound: O[C@@H](COc1cccc2ncccc12)CN1CCN([C@@H]2c3ccccc3[C@@H]3[C@H](c4ccccc42)C3(F)F)CC1 [Zosuquidar] + Nc1nc2[nH]cc(CCc3ccc(C(=O)N[C@@H](CCC(=O)O)C(=O)O)cc3)c2c(=O)[nH]1 [Pemetrexed] (partner 0.2 µM)
In short: as §1

[1] = compound: COc1cc2nccc(Oc3ccc(NC(=O)C4(C(=O)Nc5ccc(F)cc5)CC4)cc3)c2cc1OC [Cabozantinib] + C[C@]1(O)C[C@@H](c2nc(-c3ccc4ccc(-c5ccccc5)nc4c3)c3c(N)nccn32)C1 [Linsitinib] (partner 1 µM)
In short: as §1

Cell Line | relative viability (Zosuquidar + OSI-027; first compound 0.01 µM) | relative viability (Zosuquidar + OSI-027; first compound 0.03162 µM) | relative viability (Zosuquidar + OSI-027; first compound 0.1 µM) | relative viability (Zosuquidar + OSI-027; first compound 0.3162 µM) | relative viability (Zosuquidar + OSI-027; first compound 1 µM) | relative viability (Zosuquidar + AZD7762; first compound 0.01 µM) | relative viability (Zosuquidar + AZD7762; first compound 0.03162 µM) | relative viability (Zosuquidar + AZD7762; first compound 0.3162 µM) | relative viability (Zosuquidar + AZD7762; first compound 1 µM) | relative viability (Zosuquidar + Pemetrexed; first compound 0.01 µM) | relative viability (Zosuquidar + Pemetrexed; first compound 0.03162 µM) | relative viability (Zosuquidar + Pemetrexed; first compound 0.3162 µM) | relative viability (Zosuquidar + Pemetrexed; first compound 1 µM) | relative viability ([1]; first compound 0.02 µM) | relative viability ([1]; first compound 0.06325 µM) | relative viability ([1]; first compound 0.2 µM) | relative viability ([1]; first compound 0.6325 µM) | relative viability ([1]; first compound 2 µM) | relative viability (Zosuquidar + AZD7762; first compound 0.1 µM) | relative viability (Zosuquidar + Pemetrexed; first compound 0.1 µM)
SW 900 | 0.676 | 0.507 | 0.493 | 0.646 | 0.706 | 0.597 | 0.782 | 0.668 | 0.636 | 0.497 | 0.485 | 0.514 | 0.498 | – | – | – | – | – | – | –
NCI-H358 | 0.779 | 0.769 | 0.618 | 0.736 | 0.734 | 0.55 | 0.541 | 0.503 | 0.43 | 0.189 | 0.173 | 0.167 | 0.154 | 0.833 | 0.868 | 0.851 | 0.735 | 0.736 | 0.492 | 0.173
PC-3 [JPC-3] | 0.738 | 0.787 | 0.562 | 0.789 | 0.796 | 0.78 | 0.9 | 0.836 | 0.524 | 1.34 | 1.04 | 1.1 | 0.366 | 0.971 | 0.993 | – | 1 | 0.902 | 0.648 | 0.873
NCI-H1651 | 0.78 | 0.694 | 0.633 | 0.657 | 0.725 | 0.459 | 0.476 | 0.403 | 0.384 | 0.55 | 0.653 | 0.533 | 0.644 | 1.06 | 0.969 | 1.06 | 0.958 | 0.733 | 0.415 | 0.425
HCC-827 | 0.828 | 0.723 | 0.673 | 0.828 | 0.788 | 0.171 | 0.212 | 0.216 | 0.192 | 0.237 | 0.272 | 0.263 | 0.279 | 0.945 | 1.02 | – | 1.03 | 0.972 | 0.148 | 0.255
HCC-366 | 0.911 | 1.09 | 0.845 | 1.19 | 0.956 | 0.23 | 0.227 | 0.369 | 0.298 | 0.177 | 0.155 | 0.145 | 0.184 | 0.772 | 0.649 | 0.703 | 0.637 | 0.554 | 0.285 | 0.147
HARA | 0.49 | – | 0.415 | 0.564 | 0.398 | 0.429 | 0.343 | 0.344 | 0.322 | 0.259 | 0.234 | 0.31 | 0.277 | 1.03 | 1.06 | 0.874 | 0.994 | 0.986 | 0.304 | 0.247
NCI-H520 | 0.266 | 0.294 | – | 0.237 | 0.236 | – | – | – | – | 0.742 | 0.723 | 0.85 | 0.899 | 0.923 | 1.05 | 0.938 | 0.796 | 0.815 | – | 0.788
NCI-H1299 | – | – | – | – | – | – | – | – | – | – | – | – | – | 1.03 | 1 | 0.982 | 0.96 | 0.966 | – | –
SW 1573 | 0.624 | 0.609 | 0.81 | 1 | 0.689 | – | – | – | – | 0.781 | 0.751 | 0.941 | 0.786 | 0.702 | 0.799 | 0.842 | 0.604 | 0.63 | – | 0.952
CAL-12T | 0.715 | 0.867 | 0.478 | 0.951 | 0.562 | 0.586 | 0.626 | 0.632 | 0.738 | 1.08 | 1.15 | 1.23 | 1.1 | 0.861 | 0.874 | 0.87 | 0.786 | 0.816 | 0.469 | 0.983
COR-L 105 | 0.595 | 0.679 | 0.519 | 0.79 | 0.613 | – | – | – | – | 1.27 | 1.01 | 1.1 | 1.16 | 0.945 | 1.04 | – | 0.937 | 0.839 | – | 1.18
NCI-H3122 | 0.921 | 1.03 | – | 1.36 | 0.936 | 0.812 | 0.916 | 1.01 | 1 | 0.19 | 0.188 | 0.19 | 0.204 | 1.01 | 1.03 | 1.08 | 0.949 | 1 | 0.844 | 0.192
NCI-H2228 | 0.614 | 0.635 | 0.604 | 0.745 | 0.428 | – | – | – | – | 0.359 | 0.302 | 0.324 | 0.361 | 0.939 | 1.32 | 0.611 | 0.716 | 0.542 | – | 0.315
RERF-LC-KJ | 0.543 | 0.565 | 0.634 | 0.691 | 0.623 | 1.02 | 0.882 | 1.05 | 0.811 | 0.456 | 0.459 | 0.518 | 0.467 | 0.909 | 0.885 | 0.813 | 0.883 | 0.875 | 0.895 | 0.478
NCI-H441 | 0.667 | 0.666 | 0.519 | 0.828 | 0.585 | 0.991 | 1.33 | 1.23 | 1.19 | 0.29 | 0.286 | 0.23 | 0.268 | 0.53 | 0.721 | 0.686 | 0.46 | 0.418 | 1.09 | 0.249
A549 | – | – | – | – | – | – | – | – | – | – | – | – | – | 0.621 | 0.641 | 0.481 | 0.534 | 0.373 | – | –
NCI-H2342 | 0.605 | 0.597 | 0.558 | 0.668 | 0.624 | 0.63 | 0.527 | 0.552 | 0.47 | 0.682 | 0.785 | 0.899 | 0.818 | – | – | – | – | – | 0.44 | 0.649
NCI-H1623 | 0.432 | 0.464 | 0.421 | 0.441 | 0.43 | – | – | – | – | – | – | – | – | – | – | – | – | – | – | –
LCLC-97TM1 | 0.469 | 0.507 | 0.366 | 0.502 | 0.641 | 0.214 | 0.345 | 0.25 | 0.2 | 0.192 | 0.191 | 0.158 | 0.183 | – | 0.187 | 0.2 | 0.195 | 0.204 | – | –
